What was measured:
gp120-CD4 binding = molecular target: T1, gp120-CD4 binding (Human immunodeficiency virus type 1 group M subtype B, UniProt P03375); design: species or system HIV-1; details: 10 μg/ml
T1 construct: purchased Immunodiagnostics, Woburn, Mass; (gp120); Genentech Inc., South San Francisco, Calif; (sCD4)
Description: Inhibition of gp120 binding to CD4. Wells of polystyrene plates was coated with 100 μl of sheep anti-gp120 antibody D7324 (Cliniqa, Fallbrook, Calif.) at 2 μg/ml in carbonate buffer (pH 9.6) at 4° C. overnight and blocked with 1% dry fat-free milk in PBS at 37° C. for 1 h. One hundred microliters of recombinant gp120 molecule (Immunodiagnostics, Woburn, Mass.) at 0.5 μg/ml in PBS was added and incubated at 37° C. for 1 h, followed by three washes with PBS-T. Soluble CD4 (sCD4) at 0.25 μg/ml was added in the presence of a compound (25 μM) and incubated at 37° C. for 1 h. After three washes, rabbit anti-sCD4 IgG (0.25 μg/ml in PBS, 100 μl/well) was added and incubated at 37° C. for 1 h. Binding of rabbit anti-sCD4 IgG was determined by sequential addition of biotinylated goat-anti-rabbit IgG, SA-HRP, and TMB. After the reactions were terminated, absorbance at 450 nm was recorded in an ELISA reader (Tecan).
HIV-1 envelope glycoprotein gp120 was captured by the anti-gp120 antibody coated onto wells of polystyrene plates. […] After extensive washes, CD4 molecule bound to gp120 was quantitated by ELISA using anti-CD4 antibody.

HIV-1IIIB [1] = assay: inhibition of HIV-1IIIB replication (p24 production) in MT-2 cells; format: cell-based; details: concentration up to 80 μg/ml
From the text: (§1) Assessment of anti-HIV-1 infectivity. […] Reactions were terminated by addition of 1N H2SO4.

[2] = system: MT-2 & H9/HIV-1IIIB (clade B, X4); assay: cell-cell fusion, dye transfer assay; format: cell-based; details: H9/HIV-1IIIB with MT-2 cells
Description: Inhibition of cell-cell fusion. A dye transfer assay was used for detection of HIV-1 mediated cell fusion as previously described (21, 24, 34). H9/HIV-1IIIB cells were labeled with a fluorescent reagent, Calcein-AM (Molecular Probes, Inc., Eugene, Oreg.) and then incubated with MT-2 cells (ratio=1:5) in 96-well plates at 37° C. for 2 hrs in the presence or absence of compounds tested. The fused and unfused Cacein-labeled HIV-1-infected cells were counted under an inverted fluorescence microscope (Zeiss, Germany) with an eyepiece micrometer disc. The percentage of inhibition of cell fusion and the IC50 values were calculated as previously described (21).

[3] = system: HIV-1NL4-3 pseudotyped viruses expressing HIV-1SF162 (R5) Env with U87-T4-CCR5 cells; assay: virus-cell fusion, luciferase assay; format: cell-based; details: HIV-1SF162 (R5) Env pseudotyped virus
Description: Inhibition of virus-cell fusion. Inhibition of fusion of HIV-1NL4-3 pseudotyped viruses expressing envelope glycoprotein of the HIV-1HXB2 (X4) and HIV-1SF162 (R5) strains with U87-T4-CXCR4 and U87-T4-CCR5 cells, respectively, was measured as previously described (15). Briefly, 100 μl of U87-T4-CXCR4 and U87-T4-CCR5 cells, respectively, at 1×10^5 cells/ml were added to the wells of a 96-well tissue culture plate and cultured at 37° C. overnight. Fifty μl of a test compound at graded concentrations was mixed with 50 μl of the HIV-1NL4-3-luc viruses pseudotyped with the HIV-1HXB2 and HIV-1SF162 Env, prepared as described previously (15), at a final p24 concentration of 0.5 ng/ml in the presence of Polybrene (10 μg/ml). After incubation at 37° C. for 30 min, the mixtures were added to the cells and incubated at 37° C. overnight. The supernatants were removed and fresh culture medium was added. After incubation at 37° C. for 3 days, the cells were washed twice with PBS and lysed with the lysing reagent included in a luciferase assay kit (Promega, Corp., Madison, Wis.). The cell lysates were transferred to a 96-well flat-bottom luminometer plate (Costar, Corning Inc., Corning, N.Y.) and luciferase substrate (Promega) was added. The luciferase activity was measured immediately on a luminometer (Ultra 384, Tecan). The % inhibition and IC50 values were calculated as described above.

[4] = system: H9/HIV-1IIIB cells cocultured with MT-2 cells; assay: syncytium-formation assay for screening HIV-1 fusion inhibitors; format: cell-based; details: single dose 25 μg/ml
From the text: Syncytium-formation assay for screening HIV-1 fusion inhibitors. […] HIV-1 induced syncytium formation was observed under an inverted microscope and scored as “−” (no syncytium was observed), “±” (about 50% syncytia were inhibited), and “+” (no syncytium formation was inhibited). The compounds scored with “−” and “±” were selected for further screening by ELISA for inhibitors against the gp41 six-helix bundle formation.

[5] = molecular target: gp41 six-helix bundle formed by N36 and C34 (Human immunodeficiency virus type 1 group M subtype B, UniProt P04578); details: for inhibitory activity on gp41 six-helix bundle formation (sandwich ELISA): graded concentrations, up to 80 μg/ml, compound preincubated with N36; for inhibition of six-helix bundle formation between N36 and C34 (screening ELISA): single dose 25 μg/ml
Sequence of gp41 six-helix bundle formed by N36 and C34 (P04578 546-581): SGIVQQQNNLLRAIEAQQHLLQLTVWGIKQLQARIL
Description: ELISA for screening for compounds that inhibit the gp41 six-helix bundle formation. A sandwich ELISA as previously described (23) was used to screen for compounds that inhibit the gp41 six-helix bundle formation. Briefly, peptide N36 (2 μM) was pre-incubated with a test compound at the indicated concentrations at 37° C. for 30 min, followed by addition of C34 (2 μM). In the control experiments, N36 was pre-incubated with C34 at 37° C. for 30 min, followed by addition of the test compound. After incubation at 37° C. for 30 min, the mixture was added to wells of a 96-well polystyrene plate (Costar, Corning Inc., Corning, N.Y.) which were precoated with IgG (2 μg/ml) purified from rabbit antisera directed against the N36/C34 mixture. […] Absorbance at 450 nm was measured using an ELISA reader (Ultra 384, Tecan, Research Triangle Park, N.C.). The percent inhibition by the compounds was calculated as previously described (18) and the concentration for 50% inhibition (IC50) was calculated using the software designated Calcusyn (7), kindly provided by Dr. T. C. Chou (Sloan-Kettering Cancer Center, New York, N.Y.).

HIV-1IIIB [6] = assay: time-of-addition assay; format: cell-based; details: 2.5 μM added 8 hrs post-infection
Description: as §1
MT-2 cells were incubated with HIV-1IIIB at 37° C. for 0, 1, 2, 3, 4, 6, and 8 hrs, respectively, before addition of the test compounds at 10 μg/ml. AZT (2.5 μM) was used as a control. After culture for another 2 hrs, the cells were washed to remove the free virus and compounds. The supernatants were collected on day 4 post-infection for measurement of p24 production.

CXCR4 = molecular target: T2, CXCR4 (Homo sapiens, UniProt P61073); assay: inhibition of anti-CXCR4 antibody 12G5 binding to CXCR4-expressing cells, cell-based ELISA; details: 25 μM
T2 construct: expressed in transfected cells; host or cells: U373-MAGI-CXCR4CEM cells
T2 sequence (P61073 whole entry): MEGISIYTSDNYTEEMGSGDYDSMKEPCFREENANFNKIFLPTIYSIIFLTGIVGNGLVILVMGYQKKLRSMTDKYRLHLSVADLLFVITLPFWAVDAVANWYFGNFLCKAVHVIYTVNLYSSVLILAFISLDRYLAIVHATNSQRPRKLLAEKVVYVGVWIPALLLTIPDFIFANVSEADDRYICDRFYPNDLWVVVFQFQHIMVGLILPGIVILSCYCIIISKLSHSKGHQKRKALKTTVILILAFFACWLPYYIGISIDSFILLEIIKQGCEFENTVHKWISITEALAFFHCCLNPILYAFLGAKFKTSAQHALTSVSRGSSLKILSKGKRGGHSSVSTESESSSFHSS
Description: Inhibition of anti-CXCR4 antibody binding to CXCR4-expressing cells. The inhibition of the binding of anti-CXCR4 antibody to CXCR4-expressing cells was determined using a cell-based ELISA as described previously (52). Briefly, U373-MAGI-CXCR4CEM cells (1×10^5/well) which express CXCR4 molecules were cultured in a 96-well plate at 37° C. overnight. The cells were fixed with 5% formaldehyde at room temperature for 15 min and washed with PBS-T. The cells were incubated with anti-CXCR4 mAb 12G5 at 37° C. for 1 h in the presence or absence of compounds tested. Isotype IgG2a was used as a control.

Molecule | inhibitory activity on HIV-1IIIB replication (HIV-1IIIB [1]) | inhibitory activity on cell-cell fusion [2] | inhibitory activity on virus-cell fusion [3] | inhibition of HIV-1 mediated syncytium formation [4] | inhibitory activity on gp41 six-helix bundle formation (sandwich ELISA) [5] | inhibition of six-helix bundle formation between N36 and C34 (screening ELISA) [5] | also measured
CN1C(=O)[C@@H](c2cc(Cl)c(O)c(Cl)c2)NC(=O)[C@@H]2NC(=O)[C@@H](c3cc(Cl)c(O)c(Cl)c3)NC(=O)[C@H](NC(=O)C(=O)c3cc(Cl)c(O)c(Cl)c3)Cc3c[nH]c4c(cccc34)-c3cc2cc(c3O)Oc2ccc(cc2)C[C@H]1C(=O)N[C@@H](C(=O)O)c1ccc(O)cc1 [chloropeptin, reference compound] | – | – | – | – | – | – | inhibition of gp120-CD4 binding (gp120-CD4 binding): markedly inhibited
Clc1ccc(-n2cccc2)cc1 [NB-178, reference compound] | no inhibitory activity | no inhibitory activity | no inhibitory activity | no inhibitory activity | no inhibitory activity | no inhibitory activity | –
Cc1ccc(C)n1-c1cccc(O)c1 [NB-177, reference compound] | no inhibitory activity | no inhibitory activity | no inhibitory activity | no inhibitory activity | no inhibitory activity | no inhibitory activity | –
Cc1cn([C@H]2C[C@H](N=[N+]=[N-])[C@@H](CO)O2)c(=O)[nH]c1=O [AZT, reference compound] | – | – | – | – | – | – | inhibition of HIV-1 replication, time of addition (HIV-1IIIB [6]): still effective
[Tyr-5,12, Lys-7]polyphemusin II [Example T22, reference compound] | – | – | – | – | – | – | inhibition of 12G5 binding to U373-MAGI-CXCR4CEM cells (CXCR4): significantly inhibited
